According to the supplement of paper PMC11061612:

What was measured:
[1] = tested on: HARA (Squamous Cell Lung Carcinoma); experiment: Bliss excess, mean over the matrix (fraction); higher = more synergy
Method in brief: (§1)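 Bliss excess equals the observed combination effect minus the expected value EA + EB − EA·EB, where EA and EB are the effects of each agent alone. Combination Emax is the second-highest inhibition within the matrix. Inhibition was scaled from CellTiter-Glo 2.0 luminescence, with 0 set by vehicle wells and 1 by blank wells, after 72 hours of two-drug dosing of cells plated in 1536-well plates.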

[2] = tested on: SW1116 (Colorectal Carcinoma); experiment: as above
Method in brief: as §1

[3] = tested on: SU-DHL-6 (B-Cell Non-Hodgkin's Lymphoma); experiment: as above
Method in brief: as §1

[4] = tested on: OVCAR-8 (Ovarian Carcinoma); experiment: as above
Method in brief: as §1

[5] = tested on: NCI-H2461 (Mesothelioma); experiment: combination Emax (second highest fraction inhibited in the dose matrix, 72 h); higher = more inhibition; extreme values may be limits of the assay
Method in brief: as §1

[6] = tested on: HARA (Squamous Cell Lung Carcinoma); experiment: as above
Method in brief: as §1

[7] = tested on: EN (Endometrial Carcinoma); experiment: as above
Method in brief: as §1

[8] = tested on: SUP-T1 (T-Lymphoblastic Leukemia); experiment: as above
Method in brief: as §1

[9] = tested on: HCC-15 (Squamous Cell Lung Carcinoma); experiment: as above
Method in brief: as §1

[10] = tested on: SH-4 (Melanoma); experiment: as above
Method in brief: as §1

[11] = tested on: SW1116 (Colorectal Carcinoma); experiment: as above
Method in brief: as §1

[12] = tested on: PCI-30 (Head and Neck Carcinoma); experiment: as above
Method in brief: as §1

[13] = tested on: TE-4 (Esophageal Squamous Cell Carcinoma); experiment: as above
Method in brief: as §1

[14] = tested on: CAPAN-1 (Pancreatic Carcinoma); experiment: as above
Method in brief: as §1

[15] = tested on: UMC-11 (Other Solid Carcinomas); experiment: as above
Method in brief: as §1

[16] = tested on: 639-V (Bladder Carcinoma); experiment: as above
Method in brief: as §1

[17] = tested on: KYSE-410 (Esophageal Squamous Cell Carcinoma); experiment: as above
Method in brief: as §1

[18] = tested on: SK-OV-3 (Ovarian Carcinoma); experiment: as above
Method in brief: as §1

[19] = tested on: COLO-829 (Melanoma); experiment: as above
Method in brief: as §1

[20] = tested on: NB14 (Neuroblastoma); experiment: as above
Method in brief: as §1

| Compound | Bliss excess [1] | Bliss excess [2] | Bliss excess [3] | Bliss excess [4] | combination Emax [5] | combination Emax [6] | combination Emax [7] | combination Emax [8] | combination Emax [9] | combination Emax [10] | combination Emax [11] | combination Emax [12] | combination Emax [13] | combination Emax [14] | combination Emax [15] | combination Emax [16] | combination Emax [17] | combination Emax [18] | combination Emax [19] | combination Emax [20] |
| --- | --- | --- | --- | --- | --- | --- | --- | --- | --- | --- | --- | --- | --- | --- | --- | --- | --- | --- | --- | --- |
| Cc1cc2ncnn2cc1Nc1ncc2c(n1)n(C1CCOCC1)c(=O)n2C [AZD7648] + C=CCn1c(=O)c2cnc(Nc3ccc(N4CCN(C)CC4)cc3)nc2n1-c1cccc(C(C)(C)O)n1 [AZD1775] (first compound max 10 µM, partner max 1 µM) | -0.0542 | -0.0172 | -0.0816 | 0.0102 | 0.659 | 0.797 | 0.662 | 0.834 | 0.345 | 0.447 | 0.295 | 0.375 | 0.431 | 0.5 | 0.424 | 0.425 | 0.361 | 0.535 | 0.214 | 0.998 |
| Cc1cc2ncnn2cc1Nc1ncc2c(n1)n(C1CCOCC1)c(=O)n2C [AZD7648] + CCN(CCO)CCCOc1ccc2c(Nc3cc(CC(=O)Nc4cccc(F)c4)[nH]n3)ncnc2c1 [AZD2811] (first compound max 10 µM, 7x7, partner max 1 µM) | 0.017 | 0.012 | 0.0052 | 0.0473 | 0.468 | 0.364 | 0.519 | 0.641 | 0.703 | 0.345 | 0.249 | 0.318 | 0.137 | 0.299 | 0.701 | 0.278 | 0.187 | 0.367 | 0.196 | 0.837 |
| Cc1cc2ncnn2cc1Nc1ncc2c(n1)n(C1CCOCC1)c(=O)n2C [AZD7648] + CN(C)CCCOc1ccc(-c2ccc3ncc4c(c3c2)n(C2CCOCC2)c(=O)n4C)cn1 [AZD0156] (first compound max 10 µM, 7x7, partner max 1 µM) | 0.0352 | -0.0064 | -0.0502 | 0.0245 | 0.448 | 0.283 | 0.35 | 0.482 | 0.227 | 0.291 | 0.19 | 0.234 | 0.147 | 0.31 | 0.21 | 0.239 | 0.178 | 0.403 | 0.129 | 0.407 |
| Cc1cc2ncnn2cc1Nc1ncc2c(n1)n(C1CCOCC1)c(=O)n2C [AZD7648] + C[C@@H]1COCCN1C2=NC(=NC(=C2)C3(CC3)[S@](=N)(=O)C)C4=C5C=CNC5=NC=C4 [AZD6738] (first compound max 10 µM, 7x7, partner max 10 µM) | -0.0073 | 0.0285 | -0.0598 | 0.0012 | 0.71 | 0.841 | 0.62 | 0.744 | 0.181 | 0.335 | 0.267 | 0.686 | 0.531 | 0.495 | 0.537 | 0.404 | 0.363 | 0.638 | 0.286 | 0.99 |
| Cc1cc2ncnn2cc1Nc1ncc2c(n1)n(C1CCOCC1)c(=O)n2C [AZD7648] + O=C(c1cc(Cc2n[nH]c(=O)c3ccccc23)ccc1F)N1CCN(C(=O)C2CC2)CC1 [Olaparib] (first compound max 10 µM, 7x7, partner max 10 µM) | -0.0114 | -0.0421 | -0.0263 | -0.0103 | 0.278 | 0.314 | 0.301 | 0.465 | 0.129 | 0.179 | 0.0602 | 0.198 | 0.167 | 0.237 | 0.244 | 0.182 | 0.141 | 0.173 | 0.119 | 0.508 |
| NC1(C(=O)N[C@@H](CCO)c2ccc(Cl)cc2)CCN(c2ncnc3[nH]ccc23)CC1 [Capivasertib] + CC(=O)c1c(C)c2cnc(Nc3ccc(N4CCNCC4)cn3)nc2n(C2CCCC2)c1=O [Palbociclib] (first compound max 10 µM, 7x7, partner max 10 µM) | 0.0388 | -0.0297 | 0.0059 | -0.0017 | 0.467 | 0.689 | 0.546 | 0.677 | 0.633 | 0.427 | 0.136 | 0.291 | 0.826 | 0.277 | 0.553 | 0.299 | 0.549 | 0.417 | 0.356 | 0.598 |
| NC1(C(=O)N[C@@H](CCO)c2ccc(Cl)cc2)CCN(c2ncnc3[nH]ccc23)CC1 [Capivasertib] + CC(C)n1c(=O)n(C)c2cnc3cc(F)c(-c4ccc(OCCCN5CCCCC5)nc4)cc3c21 [AZD1390] (first compound max 10 µM, 7x7, partner max 0.3 µM) | -0.0216 | -0.0335 | -0.0071 | -0.0304 | 0.6 | 0.514 | 0.574 | 0.718 | 0.26 | 0.359 | 0.215 | 0.298 | 0.616 | 0.044 | 0.201 | 0.252 | 0.327 | 0.383 | 0.201 | 0.381 |
| NC1(C(=O)N[C@@H](CCO)c2ccc(Cl)cc2)CCN(c2ncnc3[nH]ccc23)CC1 [Capivasertib] + CCN(CCO)CCCOc1ccc2c(Nc3cc(CC(=O)Nc4cccc(F)c4)[nH]n3)ncnc2c1 [AZD2811] (first compound max 10 µM, 7x7, partner max 1 µM) | 0.0137 | -0.0435 | 0.0406 | 0.001 | 0.564 | 0.679 | 0.661 | 0.83 | 0.773 | 0.323 | 0.197 | 0.28 | 0.748 | 0.225 | 0.879 | 0.387 | 0.303 | 0.394 | 0.35 | 0.938 |
| NC1(C(=O)N[C@@H](CCO)c2ccc(Cl)cc2)CCN(c2ncnc3[nH]ccc23)CC1 [Capivasertib] + COc1nnc2ccc(N3CCC(c4ccc(OCCN5CCN(C)C(=O)[C@H]5C)cc4)CC3)nn12 [AZD5153] (first compound max 10 µM, 7x7, partner max 1 µM) | -0.0019 | -0.0236 | -0.0424 | 0.0505 | 0.526 | 0.77 | 0.525 | 0.789 | 0.626 | 0.775 | 0.245 | 0.366 | 0.851 | 0.358 | 0.768 | 0.622 | 0.56 | 0.535 | 0.272 | 0.884 |
| NC1(C(=O)N[C@@H](CCO)c2ccc(Cl)cc2)CCN(c2ncnc3[nH]ccc23)CC1 [Capivasertib] + C[C@@H]1COCCN1C2=NC(=NC(=C2)C3(CC3)[S@](=N)(=O)C)C4=C5C=CNC5=NC=C4 [AZD6738] (first compound max 10 µM, 7x7, partner max 10 µM) | -0.0719 | -0.011 | 0.0023 | -0.0485 | 0.797 | 0.868 | 0.71 | 0.866 | 0.367 | 0.492 | 0.227 | 0.482 | 0.818 | 0.364 | 0.67 | 0.496 | 0.397 | 0.493 | 0.563 | 0.964 |
| NC1(C(=O)N[C@@H](CCO)c2ccc(Cl)cc2)CCN(c2ncnc3[nH]ccc23)CC1 [Capivasertib] + Cn1cnc2c(F)c(Nc3ccc(Br)cc3Cl)c(C(=O)NOCCO)cc21 [Selumetinib] (first compound max 10 µM, 7x7, partner max 10 µM) | -0.0186 | 0.0203 | 0.0255 | 0.037 | 0.569 | 0.607 | 0.646 | 0.682 | 0.693 | 0.909 | 0.453 | 0.342 | 0.961 | 0.476 | 0.279 | 0.366 | 0.532 | 0.473 | 0.818 | 0.313 |
| Cc1nc(Nc2ncc(C(=O)Nc3c(C)cccc3Cl)s2)cc(N2CCN(CCO)CC2)n1 [Dasatinib] + CC(=O)Nc1cccc(-n2c(=O)n(C3CC3)c(=O)c3c(Nc4ccc(I)cc4F)n(C)c(=O)c(C)c32)c1 [Trametinib] (first compound max 2 µM, 7x7, partner max 1 µM) | -0.0523 | 0.0459 | 0.0272 | 0.0396 | 0.431 | 0.531 | 0.289 | 0.577 | 0.853 | 0.935 | 0.757 | 0.643 | 0.857 | 0.615 | 0.136 | 0.466 | 0.546 | 0.392 | 0.672 | 0.465 |
| COc1cccc2c1C(=O)c1c(O)c3c(c(O)c1C2=O)C[C@@](O)(C(=O)CO)C[C@@H]3O[C@H]1C[C@H](N)[C@H](O)[C@H](C)O1 [Doxorubicin] + Cc1cc2ncnn2cc1Nc1ncc2c(n1)n(C1CCOCC1)c(=O)n2C [AZD7648] (first compound max 1 µM, 7x7, partner max 10 µM) | 0.0915 | -0.0046 | 0.0697 | 0.061 | 0.867 | 0.808 | 0.735 | 0.784 | 0.284 | 0.588 | 0.146 | 0.721 | 0.443 | 0.511 | 0.613 | 0.98 | 0.117 | 0.638 | 0.73 | 0.887 |
